The values below come from patent US20090181090A1, “Protein-Based Carrier System for Overcoming Resistance in Tumour Cells” (priority 2005, published 2009).

Values after ≈ are worked out from the molar mass of the structure shown. Read-outs that look alike come from different tables or passages of the source.

One test has as its system UKF-NB3 Dxr-R. cells. In words: MTT cytotoxicity test, doxorubicin-resistant neuroblastoma cells. Particulars: 5 days incubation. It is filed as cell-based, human. As to the method:
To test the cytotoxicity of the doxorubicin nanoparticles (Dxr-NP) produced, as compared to a doxorubicin solution (Dxr-Soln) and a liposomal doxorubicin preparation (CAELYX®), the following cell lines were used:
doxorubicin-resistant cells of the human neuroblastoma cell line of the Universitätsklinikum Frankfurt (UKF-NB3 Dxr-R.)
To determine the cytotoxicity, the MTT test was used. In this test the viability of the cells in the presence of different concentrations of a substance is determined and is then compared with a cell control. From the results, the IC50 value (inhibitory concentration 50), i.e. the concentration of a substance at which 50% of the cells die, can be calculated. […] After dissolving the crystals with SDS/DMF solution, the colour intensity can be measured photometrically. […]
One column of the wells contained pure medium and corresponded to the blank value; in a second column the cells for the growth control (100% value) were cultivated. […] After a further incubation at 37° C. overnight, the colour crystals had dissolved completely, and the colour intensity in each well was measured photometrically at […]. By subtracting the blank value from the measured values and with reference to the control, the cell viability can be expressed in percent.

In another test the test system is UKF-NB3 Par. cells. In words: MTT cytotoxicity test, parental neuroblastoma cells. The test is classed as cell-based. The following applies: Homo sapiens, UKF-NB-3, 120 h, 5 days incubation.

In general, IC50 refers to the concentration that gives 50% inhibition. On to `COc1cccc2c1C(=O)c1c(O)c3c(c(O)c1C2=O)C[C@@](O)(C(=O)CO)C[C@@H]3O[C@H]1C[C@H](N)[C@H](O)[C@H](C)O1` [Dxr-Soln, doxorubicin], for which the IC50 in the test with UKF-NB3 Dxr-R. cells stood at 0.0535 µg/mL (≈ 0.0984 µM); in the test with UKF-NB3 Dxr-R. cells (Homo sapiens, UKF-NB-3, 120 h, read-out: IC50), 0.0535 µg/mL (≈ 0.0984 µM); in the test with UKF-NB3 Par. cells, 0.0016 µg/mL (≈ 0.00294 µM).
